Converted amounts (≈) assume the structure as drawn.
Assays:
Assay type in all cases: functional
Enterococcus faecium [1] = test: Antibacterial activity against Enterococcus faecium ATCC 49452 at 0 % serum
Enterococcus faecium [2] = test: Antibacterial activity against Enterococcus faecium ATCC 49452 at 10 % serum; settings: ATCC 49452, Serum
Enterococcus faecalis [3] = test: Antibacterial activity against Enterococcus faecalis ATCC 6569 at 0 % serum
Enterococcus faecalis [4] = test: Antibacterial activity against Enterococcus faecalis ATCC 6569 at 10 % serum; settings: ATCC 6569, Serum
Staphylococcus aureus [5] = test: Antibacterial activity against methicillin-resistant staphylococcus aureus ATCC 43300 at 10 % serum
Staphylococcus aureus [6] = test: Antibacterial activity against methicillin susceptible staphylococcus aureus ATCC 29213 at 0 % serum
Staphylococcus aureus [7] = test: Antibacterial activity against methicillin susceptible staphylococcus aureus ATCC 29213 at 10 % serum
Staphylococcus aureus [8] = test: Antibacterial activity against methicillin-resistant staphylococcus aureus ATCC 43300 at 0 % serum

| Compound | MIC (Enterococcus faecium [1]) | MIC (Enterococcus faecium [2]) | MIC (Enterococcus faecalis [3]) | MIC (Enterococcus faecalis [4]) | MIC (Staphylococcus aureus [5]) | MIC (Staphylococcus aureus [6]) | MIC (Staphylococcus aureus [7]) | MIC (Staphylococcus aureus [8]) |
| --- | --- | --- | --- | --- | --- | --- | --- | --- |
| CCCCCCCCCC(=O)N[C@@H](Cc1c[nH]c2ccccc12)C(=O)N[C@H](CC(N)=O)C(=O)N[C@@H](CCO)C(=O)N[C@@H]1C(=O)NCC(=O)N[C@@H](CCCNCc2ccc(C(=O)N3CCN(Cc4ccccc4)CC3)cc2)C(=O)N[C@@H](CC(=O)O)C(=O)N[C@H](C)C(=O)N[C@@H](CC(=O)O)C(=O)NCC(=O)N[C@H](CO)C(=O)N[C@@H]([C@H](C)CC(=O)O)C(=O)N[C@@H](CC(=O)c2ccccc2N)C(=O)O[C@@H]1C | 3.13 mg/L (≈ 1.65 µM) | 6.25 mg/L (≈ 3.29 µM) | 6.25 mg/L (≈ 3.29 µM) | 6.25 mg/L (≈ 3.29 µM) | 0.39 mg/L (≈ 0.205 µM) | 0.78 mg/L (≈ 0.411 µM) | 0.78 mg/L (≈ 0.411 µM) | 0.39 mg/L (≈ 0.205 µM) |
| CCCCCCCCCC(=O)N[C@@H](Cc1c[nH]c2ccccc12)C(=O)N[C@H](CC(N)=O)C(=O)N[C@@H](CCO)C(=O)N[C@@H]1C(=O)NCC(=O)N[C@@H](CCCNCc2ccc(/C=C/C(=O)N3CCN(c4ccc(F)cc4)CC3)cc2)C(=O)N[C@@H](CC(=O)O)C(=O)N[C@H](C)C(=O)N[C@@H](CC(=O)O)C(=O)NCC(=O)N[C@H](CO)C(=O)N[C@@H]([C@H](C)CC(=O)O)C(=O)N[C@@H](CC(=O)c2ccccc2N)C(=O)O[C@@H]1C | 3.13 mg/L (≈ 1.62 µM) | 12.5 mg/L (≈ 6.48 µM) | 1.56 mg/L (≈ 0.809 µM) | 12.5 mg/L (≈ 6.48 µM) | 3.13 mg/L (≈ 1.62 µM) | 0.39 mg/L (≈ 0.202 µM) | 6.25 mg/L (≈ 3.24 µM) | 0.78 mg/L (≈ 0.404 µM) |
| CCCCCCCCCC(=O)N[C@@H](Cc1c[nH]c2ccccc12)C(=O)N[C@H](CC(N)=O)C(=O)N[C@@H](CCO)C(=O)N[C@@H]1C(=O)NCC(=O)N[C@@H](CCCNCc2ccc3ccccc3n2)C(=O)N[C@@H](CC(=O)O)C(=O)N[C@H](C)C(=O)N[C@@H](CC(=O)O)C(=O)NCC(=O)N[C@H](CO)C(=O)N[C@@H]([C@H](C)CC(=O)O)C(=O)N[C@@H](CC(=O)c2ccccc2N)C(=O)O[C@@H]1C | 6.25 mg/L (≈ 3.58 µM) | 25 mg/L (≈ 14.3 µM) | 6.25 mg/L (≈ 3.58 µM) | 12.5 mg/L (≈ 7.15 µM) | 0.78 mg/L (≈ 0.446 µM) | 0.78 mg/L (≈ 0.446 µM) | 1.56 mg/L (≈ 0.893 µM) | 0.78 mg/L (≈ 0.446 µM) |
| CCCCCCCCCC(=O)N[C@@H](Cc1c[nH]c2ccccc12)C(=O)N[C@H](CC(N)=O)C(=O)N[C@@H](CCO)C(=O)N[C@@H]1C(=O)NCC(=O)N[C@@H](CCCNCc2ccccc2N)C(=O)N[C@@H](CC(=O)O)C(=O)N[C@H](C)C(=O)N[C@@H](CC(=O)O)C(=O)NCC(=O)N[C@H](CO)C(=O)N[C@@H]([C@H](C)CC(=O)O)C(=O)N[C@@H](CC(=O)c2ccccc2N)C(=O)O[C@@H]1C | 6.25 mg/L (≈ 3.65 µM) | 6.25 mg/L (≈ 3.65 µM) | 6.25 mg/L (≈ 3.65 µM) | 25 mg/L (≈ 14.6 µM) | 1.56 mg/L (≈ 0.911 µM) | 0.78 mg/L (≈ 0.456 µM) | 3.13 mg/L (≈ 1.83 µM) | 0.78 mg/L (≈ 0.456 µM) |
| CCCCCCCCCC(=O)N[C@@H](Cc1c[nH]c2ccccc12)C(=O)N[C@H](CC(N)=O)C(=O)N[C@@H](CCO)C(=O)N[C@@H]1C(=O)NCC(=O)N[C@@H](CCCNCc2ccc(S(=O)(=O)NCc3ccc(C(F)(F)F)cc3)cc2)C(=O)N[C@@H](CC(=O)O)C(=O)N[C@H](C)C(=O)N[C@@H](CC(=O)O)C(=O)NCC(=O)N[C@H](CO)C(=O)N[C@@H]([C@H](C)CC(=O)O)C(=O)N[C@@H](CC(=O)c2ccccc2N)C(=O)O[C@@H]1C | 0.39 mg/L (≈ 0.202 µM) | 6.25 mg/L (≈ 3.23 µM) | 0.78 mg/L (≈ 0.403 µM) | 6.25 mg/L (≈ 3.23 µM) | 0.78 mg/L (≈ 0.403 µM) | 0.78 mg/L (≈ 0.403 µM) | 3.13 mg/L (≈ 1.62 µM) | 0.39 mg/L (≈ 0.202 µM) |
| CCCCCCCCCC(=O)N[C@@H](Cc1c[nH]c2ccccc12)C(=O)N[C@H](CC(N)=O)C(=O)N[C@@H](CCO)C(=O)N[C@@H]1C(=O)NCC(=O)N[C@@H](CCCNCc2ccc(S(=O)(=O)NCc3ccc(F)cc3)cc2)C(=O)N[C@@H](CC(=O)O)C(=O)N[C@H](C)C(=O)N[C@@H](CC(=O)O)C(=O)NCC(=O)N[C@H](CO)C(=O)N[C@@H]([C@H](C)CC(=O)O)C(=O)N[C@@H](CC(=O)c2ccccc2N)C(=O)O[C@@H]1C | 1.56 mg/L (≈ 0.828 µM) | 6.25 mg/L (≈ 3.32 µM) | 1.56 mg/L (≈ 0.828 µM) | 3.13 mg/L (≈ 1.66 µM) | 0.78 mg/L (≈ 0.414 µM) | 0.39 mg/L (≈ 0.207 µM) | 1.56 mg/L (≈ 0.828 µM) | 0.39 mg/L (≈ 0.207 µM) |
| CCCCCCCCCC(=O)N[C@@H](Cc1c[nH]c2ccccc12)C(=O)N[C@H](CC(N)=O)C(=O)N[C@@H](CCO)C(=O)N[C@@H]1C(=O)NCC(=O)N[C@@H](CCCNCc2ccccc2F)C(=O)N[C@@H](CC(=O)O)C(=O)N[C@H](C)C(=O)N[C@@H](CC(=O)O)C(=O)NCC(=O)N[C@H](CO)C(=O)N[C@@H]([C@H](C)CC(=O)O)C(=O)N[C@@H](CC(=O)c2ccccc2N)C(=O)O[C@@H]1C | 6.25 mg/L (≈ 3.64 µM) | 12.5 mg/L (≈ 7.29 µM) | 6.25 mg/L (≈ 3.64 µM) | 12.5 mg/L (≈ 7.29 µM) | 0.78 mg/L (≈ 0.455 µM) | 0.78 mg/L (≈ 0.455 µM) | 1.56 mg/L (≈ 0.91 µM) | 0.78 mg/L (≈ 0.455 µM) |
| CCCCCCCCCC(=O)N[C@@H](Cc1c[nH]c2ccccc12)C(=O)N[C@H](CC(N)=O)C(=O)N[C@@H](CCO)C(=O)N[C@@H]1C(=O)NCC(=O)N[C@@H](CCCNCc2ccccc2[N+](=O)[O-])C(=O)N[C@@H](CC(=O)O)C(=O)N[C@H](C)C(=O)N[C@@H](CC(=O)O)C(=O)NCC(=O)N[C@H](CO)C(=O)N[C@@H]([C@H](C)CC(=O)O)C(=O)N[C@@H](CC(=O)c2ccccc2N)C(=O)O[C@@H]1C | 12.5 mg/L (≈ 7.18 µM) | 25 mg/L (≈ 14.4 µM) | 12.5 mg/L (≈ 7.18 µM) | 25 mg/L (≈ 14.4 µM) | 0.78 mg/L (≈ 0.448 µM) | 0.78 mg/L (≈ 0.448 µM) | 1.56 mg/L (≈ 0.896 µM) | 0.78 mg/L (≈ 0.448 µM) |
